# Experiments:
# [1] = target: T1, human serum albumin (HSA) (Homo sapiens, UniProt P02768); experiment: Binding constants relative to HSA by equilibrium dialysis (Scatchard plot); settings: pH 7.4, Scatchard plot
# T1 construct: purchased Dessau company, Germany
# Source text: A Scatchard plot is used to determine the binding constants relative to human serum albumin (HSA from the Dessau company, Germany) at pH 7.4 by means of equilibrium dialysis (equilibrium dialyzer from Spectrum, Inc., USA; dialysis membrane: cut-off MW 10000) for the prepared doxorubicin derivatives, all including an acid-labile hydrazone bond as the predetermined breaking point, and for doxorubicin.
# HSA = HSA (Homo sapiens, UniProt P02768); experiment: Incubation with HSA followed by size-exclusion chromatography (Sephadex G-25); type: binding; settings: incubation of only a few seconds with HSA (or blood plasma), mole ratio 1:1, Sephadex G-25
# [2] = target: T1, human serum albumin (HSA); experiment: Binding constant relative to HSA as stated in text
# Source text: Thus BC-DOX1, after being brought into contact with HSA or after injection into the bloodstream, is tightly bound to that blood protein. Since BC-DOX1 in addition has a sulfonylhydrazone bond as an acid-labile bond between the carrier-molecule-affinitive substance and the cytostatic agent, in the acid environment of tumor tissue or in the acid intracellular compartments of the tumor cell, doxorubicin is released as the active substance so it can exert its therapeutic effect there.
# [3] = target: T1, human serum albumin (HSA); settings: Literature value (Demant et al., Biochemical Pharmacology 55, 27-32, 1998); cited from earlier work
# transferrin = transferrin (Homo sapiens, UniProt P02787); experiment: Incubation with transferrin followed by size-exclusion chromatography (Sephadex G-25); type: binding
# Sequence of transferrin (P02787 20-698, species assumed): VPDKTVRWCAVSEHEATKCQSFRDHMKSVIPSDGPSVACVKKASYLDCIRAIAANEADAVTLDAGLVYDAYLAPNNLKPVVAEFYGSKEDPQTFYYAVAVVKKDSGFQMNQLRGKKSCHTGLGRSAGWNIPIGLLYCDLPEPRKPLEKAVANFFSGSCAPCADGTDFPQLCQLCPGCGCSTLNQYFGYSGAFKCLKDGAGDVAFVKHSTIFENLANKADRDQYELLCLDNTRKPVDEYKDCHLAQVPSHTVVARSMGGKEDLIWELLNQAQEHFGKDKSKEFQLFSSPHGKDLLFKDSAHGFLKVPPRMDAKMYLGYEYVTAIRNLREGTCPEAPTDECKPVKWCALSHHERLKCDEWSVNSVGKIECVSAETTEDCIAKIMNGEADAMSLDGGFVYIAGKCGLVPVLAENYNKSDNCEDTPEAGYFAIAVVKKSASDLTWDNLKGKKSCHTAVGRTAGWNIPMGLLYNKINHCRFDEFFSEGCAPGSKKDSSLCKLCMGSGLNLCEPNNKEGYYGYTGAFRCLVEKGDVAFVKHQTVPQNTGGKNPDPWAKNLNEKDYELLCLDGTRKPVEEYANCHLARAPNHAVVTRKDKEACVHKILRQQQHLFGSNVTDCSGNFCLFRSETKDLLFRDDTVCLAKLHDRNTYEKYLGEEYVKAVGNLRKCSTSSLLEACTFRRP
# T1 sequence (P02768 25-609): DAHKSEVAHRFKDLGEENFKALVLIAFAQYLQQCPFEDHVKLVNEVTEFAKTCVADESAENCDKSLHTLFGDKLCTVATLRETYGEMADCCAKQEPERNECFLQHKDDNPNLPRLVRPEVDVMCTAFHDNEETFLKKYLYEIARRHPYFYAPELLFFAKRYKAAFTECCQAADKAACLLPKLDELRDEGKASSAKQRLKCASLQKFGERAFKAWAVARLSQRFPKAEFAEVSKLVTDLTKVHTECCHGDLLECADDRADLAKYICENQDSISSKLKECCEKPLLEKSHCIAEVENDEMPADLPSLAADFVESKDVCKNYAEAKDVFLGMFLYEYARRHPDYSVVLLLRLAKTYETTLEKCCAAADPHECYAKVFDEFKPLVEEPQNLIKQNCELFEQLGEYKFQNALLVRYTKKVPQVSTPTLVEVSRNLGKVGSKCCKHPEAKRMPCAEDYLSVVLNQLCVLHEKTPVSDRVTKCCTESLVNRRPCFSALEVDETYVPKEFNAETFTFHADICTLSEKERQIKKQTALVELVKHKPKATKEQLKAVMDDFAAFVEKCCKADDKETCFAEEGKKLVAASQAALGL
# Sequence of HSA (P02768 25-609): as above
SMILES,KA relative to HSA [1],behavior in size-exclusion chromatography after incubation with HSA (HSA),also measured
COc1cccc2c1C(=O)c1c(O)c3c(c(O)c1C2=O)C[C@](O)(/C(CO)=N/NC(=O)CCOCCOCCOCCOCCOCCOCCNC(=O)c1cc(I)cc(I)c1I)C[C@H]3O[C@H]1CC(N)[C@H](O)C(C)O1 (stereo partly drawn) [DOXO-TIB-HEXA],5.5 × 10^5,,
COc1cccc2c1C(=O)c1c(O)c3c(c(O)c1C2=O)C[C@@](O)(/C(CO)=N/NS(=O)(=O)c1ccccc1/C(=C1/C=C(Br)C(=O)C(Br)=C1C)c1cc(Br)c(O)c(Br)c1C)C[C@@H]3O[C@H]1CC(N)[C@H](O)C(C)O1 (stereo partly drawn) [BC-DOX1],,behavior like that of bromcresol green or bromcresol green sulfonic acid,binding constant relative to human serum albumin compared with free doxorubicin [2]: several orders of magnitude greater
"COc1cccc2c1C(=O)c1c(O)c3c(c(O)c1C2=O)C[C@@](O)(C(=O)CO)C[C@@H]3O[C@H]1C[C@H](N)[C@H](O)[C@H](C)O1 [Doxorubicin, doxorubicin, reference compound]",2.9 × 10^3,,"KA relative to HSA, literature value [3]: 2.7 × 10^3"
"Cc1c(C2(c3cc(Br)c(O)c(Br)c3C)OS(=O)(=O)c3ccccc32)cc(Br)c(O)c1Br [Bromcresol green, reference compound]",,elute together with HSA,affinity for other plasma proteins (transferrin): do not exhibit high affinity
CCCCCCCCCCCCCCCCCC(=O)N/N=C(\CO)[C@@]1(O)Cc2c(O)c3c(c(O)c2[C@@H](O[C@H]2CC(N)[C@H](O)C(C)O2)C1)C(=O)c1c(OC)cccc1C3=O (stereo partly drawn) [DOXO-SAH],6.1 × 10^6,,
COc1cccc2c1C(=O)c1c(O)c3c(c(O)c1C2=O)C[C@](O)(/C(CO)=N/NC(=O)CCOCCOCCOCCOCCOCCOCCNS(=O)(=O)c1ccc2c(N=Nc4ccccc4)c(O)ccc2c1)C[C@@H]3O[C@H]1CC(N)[C@H](O)C(C)O1 (stereo partly drawn) [DOXO-CROC-HEXA],7.2 × 10^7,,
